Calls of active or inactive are those of the source. The rule behind the calls is not given here.
How the values were obtained:
[1] = system: Saccharomyces cerevisiae; test: Effect on Saccharomyces cerevisiae assessed as viable cell count at 10 ug/ml in petroleum ether in dark after 180 mins; assay type: functional
[2] = system: Fusarium sp.; test: Phototoxicity against Fusarium sp. at 5 ug/disk in presence of long wave UV light; assay type: functional, organism-based
[3] = system: Microsporum canis; test: Phototoxicity against Microsporum canis at 5 ug/disk in dark; assay type: functional, organism-based
[4] = system: Microsporum canis; test: Phototoxicity against Microsporum canis at 5 ug/disk in presence of cool-white fluorescent light; assay type: functional, organism-based
[5] = system: Proteus mirabilis; test: Phototoxicity against Proteus mirabilis UBC 5 at 5 ug/disk in presence of cool-white fluorescent light; assay type: functional, organism-based
[6] = system: Pseudomonas fluorescens; test: Phototoxicity against Pseudomonas fluorescens at 5 ug/disk in dark; assay type: functional, organism-based
[7] = system: Staphylococcus epidermidis; test: Phototoxicity against Staphylococcus albus at 5 ug/disk in dark; assay type: functional, organism-based
[8] = system: Torula; test: Phototoxicity against Torula sp. at 5 ug/disk in dark; assay type: functional, organism-based
[9] = system: Sporobolomyces; test: Phototoxicity against Sporobolomyces sp. Y138 at 5 ug/disk in presence of long wave UV light; assay type: functional, organism-based
[10] = system: Nannizzia gypsea; test: Phototoxicity against Microsporum gypseum at 5 ug/disk in dark; assay type: functional, organism-based
[11] = Effect on human skin fibroblast cells assessed as viable cell count at 10 ug/ml in petroleum ether in dark after 60 mins by trypan blue exclusion method; assay type: ADME, cell-based; details: read-out: Activity
[12] = system: Escherichia coli; test: Phototoxicity against Escherichia coli at 5 ug/disk in presence of long wave UV light; assay type: functional, organism-based
[13] = system: Paraphyton cookei; test: Phototoxicity against Microsporum cookei at 5 ug/disk in dark; assay type: functional, organism-based
[14] = system: Bacillus subtilis; test: Phototoxicity against Bacillus subtilis at 5 ug/disk in dark; assay type: functional, organism-based
[15] = system: Saccharomyces cerevisiae; test: Effect on Saccharomyces cerevisiae assessed as viable cell count at 10 ug/ml in petroleum ether in dark after 30 mins; assay type: functional
[16] = Effect on human skin fibroblast cells assessed as viable cell count at 10 ug/ml in petroleum ether after 1.78 Joules/cm UV irradiation for 20 mins by trypan blue exclusion method; assay type: ADME, cell-based; details: read-out: Activity
[17] = system: Fusarium sp.; test: Phototoxicity against Fusarium sp. at 5 ug/disk in presence of cool-white fluorescent light; assay type: functional, organism-based
[18] = system: Staphylococcus epidermidis; test: Phototoxicity against Staphylococcus albus at 5 ug/disk in presence of long wave UV light; assay type: functional, organism-based
[19] = system: Bacillus subtilis; test: Phototoxicity against Bacillus subtilis at 5 ug/disk in presence of long wave UV light; assay type: functional, organism-based
[20] = system: Fusarium sp.; test: Phototoxicity against Fusarium sp. at 5 ug/disk in dark; assay type: functional, organism-based
[21] = system: Candida albicans; test: Phototoxicity against Candida albicans at 2.5 ug/disk after UV irradiation for 180 mins; assay type: functional, organism-based
[22] = system: Sporobolomyces; test: Phototoxicity against Sporobolomyces sp. Y138 at 5 ug/disk in presence of cool-white fluorescent light; assay type: functional, organism-based
[23] = system: Candida albicans; test: Phototoxicity against Candida albicans at 5 ug/disk in presence of long wave UV light; assay type: functional, organism-based
[24] = system: Enterococcus faecalis; test: Phototoxicity against Streptococcus faecalis at 5 ug/disk in presence of cool-white fluorescent light; assay type: functional, organism-based
[25] = system: Nannizzia gypsea; test: Phototoxicity against Microsporum gypseum at 5 ug/disk in presence of cool-white fluorescent light; assay type: functional, organism-based
[26] = system: DNA; test: Photochemical activity against denatured calf thymus DNA at 10 ug in dark after 60 mins by hyperchromicity test; assay type: nucleic-acid assay; details: Bos taurus; also: unit not given here
[27] = system: DNA; test: Photochemical activity against denatured calf thymus DNA at 10 ug in dark by hyperchromicity test; assay type: nucleic-acid assay; details: Bos taurus; also: unit not given here

With CC#CC#CC#Cc1ccccc1 [PHENYLHEPTATRIYNE] the Activity [1] was 53.5, the Activity [2] was “Active” and the Activity [3] was “inactive”. The Activity [4] was “Active”, the Activity [5] was “inactive” and the Activity [6] was “inactive”. For the same compound, the Activity [7] was “inactive”, the Activity [8] was “inactive” and the Activity [9] was “Active”. For the same compound, the Activity [10] was “inactive”, the viability at 1 h, 10 ug/ml [11] was 100% and the Activity [12] was “Active”. For the same compound, the Activity [13] was “inactive”, the Activity [14] was “inactive” and the Activity [15] was 35.8. The viability at 20 min, 10 ug/ml [16] was 95%, the Activity [17] was “Active” and the Activity [18] was “Active”. The Activity [19] was “Active”, the Activity [20] was “inactive” and the Activity [21] was “inactive”. The Activity [22] was “Active”, the Activity [23] was “Active” and the Activity [24] was “Active”. For the same compound, the Activity [25] was “Active”, the Activity [26] was 0.18 and the Activity [27] was 0.17.
